The results in this text go back to US10123993B2, “Cyclic ureas as inhibitors of rock” (BRISTOL-MYERS SQUIBB COMPANY, priority 2015, dated 2018).

A word on the IC50: it is the concentration that inhibits the measured activity by half. Higher therefore signals lower potency.

Counter-ions that a name gives are not always drawn.

Sequence of ROCK2 (O75116 whole entry, species assumed): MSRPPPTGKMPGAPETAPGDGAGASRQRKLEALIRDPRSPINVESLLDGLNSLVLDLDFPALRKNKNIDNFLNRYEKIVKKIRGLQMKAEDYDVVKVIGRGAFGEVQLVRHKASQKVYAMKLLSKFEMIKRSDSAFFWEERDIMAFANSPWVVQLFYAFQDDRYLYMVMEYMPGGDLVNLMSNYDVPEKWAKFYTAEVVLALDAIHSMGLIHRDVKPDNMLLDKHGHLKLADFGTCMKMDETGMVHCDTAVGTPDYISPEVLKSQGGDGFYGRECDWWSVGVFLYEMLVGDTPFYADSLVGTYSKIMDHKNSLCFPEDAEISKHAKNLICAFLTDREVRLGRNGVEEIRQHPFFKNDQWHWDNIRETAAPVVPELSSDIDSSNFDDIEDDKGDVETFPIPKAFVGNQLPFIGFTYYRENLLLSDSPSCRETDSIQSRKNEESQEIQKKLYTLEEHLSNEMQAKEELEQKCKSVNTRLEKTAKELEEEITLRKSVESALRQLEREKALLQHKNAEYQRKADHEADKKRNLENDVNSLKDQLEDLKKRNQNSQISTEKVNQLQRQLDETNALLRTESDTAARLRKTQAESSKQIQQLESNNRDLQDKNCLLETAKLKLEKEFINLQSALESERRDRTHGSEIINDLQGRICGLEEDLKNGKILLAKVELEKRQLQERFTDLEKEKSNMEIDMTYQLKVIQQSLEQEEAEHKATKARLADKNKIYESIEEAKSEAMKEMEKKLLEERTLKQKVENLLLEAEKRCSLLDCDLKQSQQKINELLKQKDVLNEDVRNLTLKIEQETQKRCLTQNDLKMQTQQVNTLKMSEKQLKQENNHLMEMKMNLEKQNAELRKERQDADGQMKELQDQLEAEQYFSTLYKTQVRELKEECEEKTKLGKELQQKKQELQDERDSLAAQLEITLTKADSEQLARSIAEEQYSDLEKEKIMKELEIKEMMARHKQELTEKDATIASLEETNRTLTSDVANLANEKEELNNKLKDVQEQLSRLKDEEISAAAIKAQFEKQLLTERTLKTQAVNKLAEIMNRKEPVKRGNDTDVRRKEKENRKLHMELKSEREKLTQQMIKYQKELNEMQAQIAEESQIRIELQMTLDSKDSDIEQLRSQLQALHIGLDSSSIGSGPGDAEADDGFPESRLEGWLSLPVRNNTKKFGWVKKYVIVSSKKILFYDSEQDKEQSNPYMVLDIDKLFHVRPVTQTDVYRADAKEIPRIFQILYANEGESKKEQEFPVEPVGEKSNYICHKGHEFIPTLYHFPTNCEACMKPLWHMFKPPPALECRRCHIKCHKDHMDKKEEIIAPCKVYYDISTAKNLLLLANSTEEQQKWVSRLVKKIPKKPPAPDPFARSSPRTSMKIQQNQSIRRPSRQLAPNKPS

The target of this assay is ROCK2 (Homo sapiens, UniProt O75116). The assay can be described thus: ROCK2 kinase inhibition assay (Caliper LABCHIP, FITC peptide substrate). It counts as biochemical. The settings on record: 5 μM ATP, 1.5 μM peptide substrate; value ranges. The method, boiled down:
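Dose-response curves gave IC50 from inhibition of peptide phosphorylation, measured by LabChip separation after EDTA stop. Reactions used 1.5 μM FITC-labelled peptide, 5 μM ATP, 20 mM HEPES pH 7.5 with MgCl2, Brij-35, DTT, and under 2% DMSO.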
As for `COc1cc(F)cc(CN2CCN(c3ccc(-c4cn[nH]c4)c(F)c3)C2=O)c1` [Example 425, 1-(3-fluoro-4-(1H-pyrazol-4-yl)phenyl)-3-(3-fluoro-5-methoxybenzyl)imidazolidin-2-one], the IC50 was under 2 nM.

Regarding `O=c1n(Cc2c(F)cccc2F)ccn1-c1ccc(-c2cn[nH]c2)cc1` [Example 68, 1-(4-(1H-pyrazol-4-yl)phenyl)-3-(2,6-difluorobenzyl)-1H-imidazol-2(3H)-one], the IC50 was 20.1 to 200 nM.

For `COc1ccc(CN2CCN(c3ccc(-c4cn[nH]c4)cc3)C2=O)cc1F` [Example 117, 1-(4-(1H-pyrazol-4-yl)phenyl)-3-(3-fluoro-4-methoxybenzyl)imidazolidin-2-one], the IC50 was in the range of 200 to 2000 nM.

Compound `COc1cc(F)ccc1CN1CCN(c2ccc(-c3cn[nH]c3)c(OC)n2)C1=O` [Example 251, 1-(4-fluoro-2-methoxybenzyl)-3-(6-methoxy-5-(1H-pyrazol-4-yl)pyridin-2-yl)imidazolidin-2-one] returned an IC50 of 20.1 to 200 nM.

With `COc1cccc(C(CCO)N2CCN(c3ccc(-c4cn[nH]c4)c(OC)c3)C2=O)c1` (stereo not shown) [Example 21, 1-(3-Hydroxy-1-(3-methoxyphenyl)propyl)-3-(3-methoxy-4-(1H-pyrazol-4-yl)phenyl)imidazolidin-2-one], the IC50 fell in the range of 2.1 to 20 nM.

With `CNC(=O)C(c1ccccc1)N1CCN(c2ccc(-c3cn[nH]c3)cc2)C1=O` (single isomer, unassigned) [Example 299, 2-(3-(4-(1H-pyrazol-4-yl)phenyl)-2-oxoimidazolidin-1-yl)-N-methyl-2-phenylacetamide], the IC50 was in the range of 20.1 to 200 nM.

`COCC(c1cccc(OC)c1)N1CCN(c2ccc(-c3cn[nH]c3)cc2)C1=O` (single isomer, unassigned) [Example 156, 1-(4-(1H-Pyrazol-4-yl)phenyl)-3-(2-methoxy-1-(3-methoxyphenyl)ethyl)imidazolidin-2-one] gave a concentration for half-maximal inhibition (IC50) of 2.1 to 20 nM.

For `CCOc1cccc(C(C)N2CCN(c3ccc(-c4cn[nH]c4)c(CC)n3)C2=O)c1` (single isomer, unassigned) [Example 266, 1-(1-(3-ethoxyphenyl)ethyl)-3-(6-ethyl-5-(1H-pyrazol-4-yl)pyridin-2-yl)imidazolidin-2-one], the IC50 was 2.1 to 20 nM.

With `COc1cccc(C(C)N2CCN(c3cc(C)c(-c4cn[nH]c4)cn3)C2=O)c1` (single isomer, unassigned) [Example 470, 1-(1-(3-methoxyphenyl)ethyl)-3-(4-methyl-5-(1H-pyrazol-4-yl)pyridin-2-yl)imidazolidin-2-one], the IC50 was 20.1 to 200 nM.

Compound `COc1cc(F)cc(CN2C(=O)N(c3ccc(-c4cn[nH]c4)cc3)C[C@H]2CO)c1` [Example 129, (S)-1-(4-(1H-pyrazol-4-yl)phenyl)-3-(3-fluoro-5-methoxy-benzyl)-4-(hydroxy-methyl)-imidazolidin-2-one] yielded an IC50 of under 2 nM.

For `CCc1cc(N2CCN(Cc3cc(F)cc(OC)c3)C2=O)ncc1-c1cn[nH]c1` [Example 191, 1-(4-ethyl-5-(1H-pyrazol-4-yl)pyridin-2-yl)-3-(3-fluoro-5-methoxy-benzyl) imidazolidin-2-one], the IC50 is 200 to 2000 nM.

`COc1cccc(C(C(=O)NCC(C)(C)O)N2CCN(c3ccc(-c4cn[nH]c4)cc3)C2=O)c1` (single isomer, unassigned) [Example 303, 2-(3-(4-(1H-pyrazol-4-yl)phenyl)-2-oxoimidazolidin-1-yl)-N-(2-hydroxy-2-methylpropyl)-2-(3-methoxyphenyl)acetamide] came in with an IC50 of 20.1 to 200 nM.

In turn, `COc1nc(-n2ccn(Cc3cccc(F)c3)c2=O)ccc1-c1cn[nH]c1` [Example 413, 1-(3-fluorobenzyl)-3-(6-methoxy-5-(1H-pyrazol-4-yl)pyridin-2-yl)-1H-imidazol-2(3H)-one] gave an IC50 of under 2 nM.

In turn, `COc1nc(N2CCN(CC3CCCO3)C2=O)ccc1-c1cn[nH]c1` (stereo not shown) [Example 254, 1-(6-methoxy-5-(1H-pyrazol-4-yl)pyridin-2-yl)-3-((tetrahydrofuran-2-yl)methyl)imidazolidin-2-one] displayed an IC50 of 20.1 to 200 nM.

`CCOc1cc(N2CCN(Cc3cccc(OC)c3)C2=O)ncc1-c1cn[nH]c1` [Example 473, 1-(4-ethoxy-5-(1H-pyrazol-4-yl)pyridin-2-yl)-3-(3-methoxybenzyl)imidazolidin-2-one] displayed an IC50 of 20.1 to 200 nM.

On to `COc1cccc(C(C)N2C(=O)N(c3ccc(-c4cn[nH]c4)cc3)CC2(C)C)c1` (single isomer, unassigned) [Example 145, 1-(4-(1H-pyrazol-4-yl)phenyl)-3-(1-(3-methoxy-phenyl)-ethyl)-4,4-dimethyl-imidazolidin-2-one], for which the IC50 lay within 2.1 to 20 nM.

As for `Cc1nc(N2CCN(Cc3cccc(OCC4CC4)c3)C2=O)ccc1-c1cn[nH]c1` [Example 186, 1-(3-(cyclo-propyl-methoxy)-benzyl)-3-(6-methyl-5-(1H-pyrazol-4-yl)pyridin-2-yl)-imidazolidin-2-one], the IC50 lay in the range of 20.1 to 200 nM.

`COc1cc(F)cc(C(C)n2ccn(-c3ccc(-c4cn[nH]c4)cc3)c2=O)c1` (single isomer, unassigned) [Example 367, 1-(4-(1H-pyrazol-4-yl)phenyl)-3-(1-(3-fluoro-5-methoxyphenyl)ethyl)-1H-imidazol-2(3H)-one] had an IC50 of 20.1 to 200 nM.

In the case of `O=C1N(Cc2ccccc2)CCN1c1ccc(-c2ccncc2)cc1` [Example 55, 1-benzyl-3-(4-(pyridin-4-yl)phenyl)imidazolidin-2-one, TFA], the IC50 was in the range of 20.1 to 200 nM.

As for `COc1cccc(C(C)n2ccn(-c3ccc(-c4ccnc5[nH]ccc45)cc3)c2=O)c1` (single isomer, unassigned) [Example 326, 1-(4-(1H-Pyrrolo[2,3-b]pyridin-4-yl)phenyl)-3-(1-(3-methoxyphenyl)ethyl)-1H-imidazol-2(3H)-one], the half-maximal inhibitory concentration (IC50) was 2.1 to 20 nM.

In the case of `COc1cc(N2C(=O)CN(Cc3cc(F)ccc3F)C2=O)ccc1-c1cn[nH]c1` [Example 92, 1-(2,5-difluorobenzyl)-3-(3-methoxy-4-(1H-pyrazol-4-yl)phenyl)imidazolidine-2,4-dione, TFA], the IC50 fell in the range of 200 to 2000 nM.

The compound `CCc1cc(N2CCN(Cc3cccc(OCC4CC4)c3)C2=O)ccc1-c1cn[nH]c1` [Example 285, 1-(3-(cyclopropylmethoxy)benzyl)-3-(3-ethyl-4-(1H-pyrazol-4-yl)phenyl)imidazolidin-2-one] gave an IC50 of 200 to 2000 nM.

`COc1cc(CN2C(=O)N(c3ccc(-c4cn[nH]c4)c(C)n3)CC2(C)C)ccc1F` [Example 152, 3-(4-fluoro-3-methoxy-benzyl)-4,4-dimethyl-1-(6-methyl-5-(1H-pyrazol-4-yl)pyridin-2-yl)-imidazolidin-2-one] showed an IC50 of 2.1 to 20 nM.

`COc1cc(F)cc(CN2CCN(c3ccc(-c4cn[nH]c4)c(C)c3)C2=O)c1` [Example 274, 1-(3-fluoro-5-methoxybenzyl)-3-(3-methyl-4-(1H-pyrazol-4-yl)phenyl)imidazolidin-2-one] showed an IC50 of under 2 nM.

Compound `COc1cccc(C(C(=O)NCC(C)C)N2CCN(c3ccc(-c4cn[nH]c4)cc3)C2=O)c1` (single isomer, unassigned) [Example 294, 2-(3-(4-(1H-pyrazol-4-yl)phenyl)-2-oxoimidazolidin-1-yl)-N-isobutyl-2-(3-methoxyphenyl)acetamide] displayed an IC50 of 2.1 to 20 nM.

`CCc1nc(N2CCN(C(C)c3cccc(OC)c3)C2=O)ccc1-c1cn[nH]c1` (single isomer, unassigned) [Example 174, 1-(6-ethyl-5-(1H-pyrazol-4-yl)pyridin-2-yl)-3-(1-(3-methoxy-phenyl)ethyl) imidazolidin-2-one] showed an IC50 of 200 to 2000 nM.

Compound `O=C1N(Cc2ccccc2)CCN1c1ccc(-c2ccncc2F)cc1` [Example 52, 1-benzyl-3-(4-(3-fluoropyridin-4-yl)phenyl)imidazolidin-2-one] came in with an IC50 of 20.1 to 200 nM.

In turn, `COc1c(F)cccc1Cn1ccn(-c2ccc(-c3cn[nH]c3)cc2)c1=O` [Example 405, 1-(4-(1H-pyrazol-4-yl)phenyl)-3-(3-fluoro-2-methoxybenzyl)-1H-imidazol-2(3H)-one] displayed an IC50 of 20.1 to 200 nM.

Compound `CC(c1cccc(OCC2CC2)c1)N1CCN(c2ccc(-c3cn[nH]c3)cc2)C1=O` (single isomer, unassigned) [Example 195, 1-(4-(1H-pyrazol-4-yl)-phenyl)-3-(1-(3-(cyclo-propyl-methoxy)-phenyl)-ethyl)-imidazolidin-2-one] displayed an IC50 of 200 to 2000 nM.

As for `COc1cccc(C(CO)n2ccn(-c3ccc(-c4cn[nH]c4)cc3)c2=O)c1` (single isomer, unassigned) [Example 323, 1-(4-(1H-Pyrazol-4-yl)phenyl)-3-(2-hydroxy-1-(3-methoxyphenyl)ethyl)-1H-imidazol-2(3H)-one], the IC50 lay in the range of 200 to 2000 nM.

As for `COc1nc(N2CCN(C(C)c3cccc(OCC4CC4)c3)C2=O)ccc1-c1cn[nH]c1` (single isomer, unassigned) [Example 213, 1-(1-(3-(cyclopropylmethoxy)phenyl)ethyl)-3-(6-methoxy-5-(1H-pyrazol-4-yl)pyridin-2-yl)imidazolidin-2-one], the IC50 is 200 to 2000 nM.

In turn, `COc1cc(N2CCN(Cc3ccccc3F)C2=O)ccc1-c1cn[nH]c1` [Example 17, 1-(2-Fluorobenzyl)-3-(3-methoxy-4-(1H-pyrazol-4-yl)phenyl)imidazolidin-2-one] yielded an IC50 of 20.1 to 200 nM.

For the compound `COc1cc(-c2cn[nH]c2)ccc1N1CCN(Cc2ccccc2)C1=O` [Example 12, 1-Benzyl-3-(2-methoxy-4-(1H-pyrazol-4-yl)phenyl)imidazolidin-2-one], the IC50 was in the range of 200 to 2000 nM.

`COc1cc(C(C)n2ccn(-c3ccc(-c4cn[nH]c4)cc3)c2=O)ccc1F` (single isomer, unassigned) [Example 391, 1-(4-(1H-pyrazol-4-yl)phenyl)-3-(1-(4-fluoro-3-methoxyphenyl)ethyl)-1H-imidazol-2(3H)-one] showed an IC50 of 2.1 to 20 nM.
